In US20240351988A1, “ARYL HYDROCARBON RECEPTOR MODULATORS AND THEIR USE IN THE TREATMENT OF DISEASES AND DISORDERS” (Allianthera (Suzhou) Biopharmaceutical Co., Ltd., priority 2021, published 2024):

target: T1, Human Aryl Hydrocarbon Receptor (AhR) (Homo sapiens, UniProt P35869); experiment: AHR antagonist reporter assay in human cell line (INDIGO AhR Reporter Assay System, kynurenic acid activated); type: cell-based; settings: 200 μM kynurenic acid, 24 hours, luciferase; read-out: AhR Reporter Assay KA Antagonist Mode: IC50
T1 construct: purchased INDIGO Bioscience #1B06001-32; host or cells: AhR Reporter Cell (kit's proprietary reporter cells)
T1 sequence (P35869 11-848): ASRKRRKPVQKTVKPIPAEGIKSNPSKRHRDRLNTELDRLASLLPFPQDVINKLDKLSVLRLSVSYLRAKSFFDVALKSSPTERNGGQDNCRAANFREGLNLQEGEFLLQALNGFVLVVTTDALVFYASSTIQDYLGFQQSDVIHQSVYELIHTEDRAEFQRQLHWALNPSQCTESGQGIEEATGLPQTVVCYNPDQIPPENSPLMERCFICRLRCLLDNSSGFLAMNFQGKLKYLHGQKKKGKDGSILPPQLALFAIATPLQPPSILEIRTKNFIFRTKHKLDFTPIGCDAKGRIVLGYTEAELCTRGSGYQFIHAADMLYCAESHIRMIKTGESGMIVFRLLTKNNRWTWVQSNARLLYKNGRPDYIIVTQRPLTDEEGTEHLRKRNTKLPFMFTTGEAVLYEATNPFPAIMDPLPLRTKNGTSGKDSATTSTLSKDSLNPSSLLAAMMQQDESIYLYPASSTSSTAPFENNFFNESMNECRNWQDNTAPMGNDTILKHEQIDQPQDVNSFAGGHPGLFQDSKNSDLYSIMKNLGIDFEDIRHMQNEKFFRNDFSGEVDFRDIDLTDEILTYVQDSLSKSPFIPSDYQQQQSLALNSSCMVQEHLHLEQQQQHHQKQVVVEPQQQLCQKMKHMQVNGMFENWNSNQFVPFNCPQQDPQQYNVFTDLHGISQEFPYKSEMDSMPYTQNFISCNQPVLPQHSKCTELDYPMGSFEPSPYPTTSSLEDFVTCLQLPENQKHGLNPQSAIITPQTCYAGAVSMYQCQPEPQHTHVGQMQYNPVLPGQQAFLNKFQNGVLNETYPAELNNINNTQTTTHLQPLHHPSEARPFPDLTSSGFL
Description: The AhR reporter assay was performed following the protocol of the Human Aryl Hydrocarbon Receptor (AhR) Reporter Assay System (INDIGO Bioscience, #1B06001-32). AhR Reporter Cell was thawed and pre-incubated in Cell Recovery Medium (CRM) for 6 hours. The media was then removed and the cells were incubated with Compound Screening Medium (CSM) supplemented with 200 μM kynurenic acid for 24 hours in the absence (negative control) or presence of increasing concentrations of test compounds (typical dilution: […], 3.2 nM, 16 nM, 80 nM, 400 nM, 2 μM, 10 μM in duplicates). For positive inhibition control, cells activated with 200 μM kynurenic acid were incubated in the presence of literature AHR antagonists; alternatively un-activated cells were used as positive inhibition control. Following 24 hours incubation, the media was removed and Luciferase Detection Reagent (LDR) added. The firefly luciferase activity was quantified using a plate reader. Results were normalized by positive and negative controls.

Row | SMILES | IC50 [µM]
1 | COC[C@H](C)NC(=O)c1cc(-c2ccc(OC(F)(F)F)cc2)nn(-c2cnn(C)c2)c1=O [Compound 69] | < 0.1
2 | COC[C@H](C)NC(=O)c1cc(-c2ccc(OC)cc2)nn(-c2cnn(C)c2)c1=O [Compound 74] | 0.1 to 0.4
3 | COC[C@H](C)NC(=O)c1cc(-c2ccc(N(C)C)nc2)nn(-c2cnn(C)c2)c1=O [Compound 75] | > 0.4
4 | COC[C@H](C)NC(=O)c1cc(-c2cnc(C3CC3)s2)nn(-c2cnn(C)c2)c1=O [Compound 77] | > 0.4
5 | COC[C@H](C)NC(=O)c1cc(-c2cnc(C)s2)nn(-c2cnn(C)c2)c1=O [Compound 79] | > 0.4
6 | COC[C@H](C)NC(=O)c1cc(-c2cnc(C(F)(F)F)s2)nn(-c2cnn(C)c2)c1=O [Compound 80] | > 0.4
7 | COC[C@H](C)NC(=O)c1cc(-c2ccc(C#N)cc2)nn(-c2cnn(C)c2)c1=O [Compound 83] | > 0.4
8 | COC[C@H](C)NC(=O)c1cc(-c2ccc(Cl)cc2F)nn(-c2cnn(C)c2)c1=O [Compound 85] | > 0.4
9 | COC[C@H](C)NC(=O)c1cc(-c2cnc(C(C)=O)s2)nn(-c2cnn(C)c2)c1=O [Compound 87] | > 0.4
10 | COC[C@H](C)NC(=O)c1cc(-c2cnc(C(C)C)s2)nn(-c2cnn(C)c2)c1=O [Compound 88] | < 0.1
11 | COC[C@H](C)NC(=O)c1cc(-c2cnc(N(C)C)nc2)nn(-c2cnn(C)c2)c1=O [Compound 89] | 0.1 to 0.4
12 | COC[C@H](C)NC(=O)c1cc(-c2cnc(N)nc2)nn(-c2cnn(C)c2)c1=O [Compound 91] | > 0.4
13 | CNC(=O)C(C)(C)NC(=O)c1cc(-c2ccc(Cl)cc2)nn(-c2cccc(F)c2)c1=O [Compound 96] | < 0.1
14 | COC[C@H](C)NC(=O)c1cc(-c2ccc(F)c(Cl)c2)nn(-c2cnn(C)c2)c1=O [Compound 102] | > 0.4
15 | COC[C@H](C)NC(=O)c1cc(-c2ccc(F)c(F)c2)nn(-c2cnn(C)c2)c1=O [Compound 103] | > 0.4
16 | COC[C@H](C)NC(=O)c1cc(-c2cccc(Cl)c2)nn(-c2cnn(C)c2)c1=O [Compound 104] | < 0.1
17 | COC[C@H](C)NC(=O)c1cc(-c2cccc(F)c2)nn(-c2cnn(C)c2)c1=O [Compound 105] | > 0.4
18 | COC[C@H](C)NC(=O)c1cc(-c2ccc(F)cc2Cl)nn(-c2cnn(C)c2)c1=O [Compound 107] | > 0.4
19 | COC[C@H](C)NC(=O)c1cc(-c2ccccc2F)nn(-c2cnn(C)c2)c1=O [Compound 108] | > 0.4
20 | COC[C@H](C)NC(=O)c1cc(-c2ccc(F)cc2F)nn(-c2cnn(C)c2)c1=O [Compound 109] | > 0.4
21 | COC[C@H](C)NC(=O)c1cc(N2CC3(CCCC3)C2)nn(-c2cnn(C)c2)c1=O [Compound 110] | > 0.4

Row | SMILES | IC50 [µM]
22 | COC[C@H](C)NC(=O)c1cc(-c2ccc3c(c2)CCCO3)nn(-c2cnn(C)c2)c1=O [Compound 111] | > 0.4
23 | COC[C@H](C)NC(=O)c1cc(N2CCC(C)CC2)nn(-c2cnn(C)c2)c1=O [Compound 114] | > 0.4
24 | COC[C@H](C)NC(=O)c1cc(C2CCCCC2)nn(-c2cnn(C)c2)c1=O [Compound 115] | > 0.4
25 | COC[C@H](C)NC(=O)c1cc(N2CCC3(CCCC3)CC2)nn(-c2cnn(C)c2)c1=O [Compound 116] | > 0.4
26 | COC[C@H](C)NC(=O)c1cc(N2CC3(CCCCC3)C2)nn(-c2cnn(C)c2)c1=O [Compound 117] | > 0.4
27 | COC[C@H](C)NC(=O)c1cc(-c2ccccc2Cl)nn(-c2cnn(C)c2)c1=O [Compound 118] | > 0.4
28 | COC[C@H](C)NC(=O)c1cc(C2CCC(C)(C)CC2)nn(-c2cnn(C)c2)c1=O [Compound 119] | > 0.4
29 | COC[C@H](C)NC(=O)c1cc(-c2cc3cccnc3cc2F)nn(-c2cnn(C)c2)c1=O [Compound 121] | > 0.4
30 | COC[C@H](C)NC(=O)c1cc(-c2ccc3ccc(OC)nc3c2)nn(-c2cnn(C)c2)c1=O [Compound 122] | > 0.4
31 | COC[C@H](C)NC(=O)c1cc(-c2ccc3oc(C)nc3c2)nn(-c2cnn(C)c2)c1=O [Compound 124] | > 0.4
32 | COC[C@H](C)NC(=O)c1cc(N2C[C@H]3CCCC[C@H]3C2)nn(-c2cnn(C)c2)c1=O [Compound 125] | < 0.1
33 | COC[C@H](C)NC(=O)c1cc(-c2ccc3ncccc3c2)nn(-c2cnn(C)c2)c1=O [Compound 126] | > 0.4
34 | COC[C@H](C)NC(=O)c1cc(N2CCC(C)(C)CC2)nn(-c2cnn(C)c2)c1=O [Compound 127] | > 0.4
35 | COC[C@H](C)NC(=O)c1cc(-c2ccc3c(c2)OCCO3)nn(-c2cnn(C)c2)c1=O [Compound 128] | > 0.4
36 | COC[C@H](C)NC(=O)c1cc(-c2ccc3c(C)ccnc3c2)nn(-c2cnn(C)c2)c1=O [Compound 129] | > 0.4
37 | COC[C@H](C)NC(=O)c1cc(-c2ccc3cccnc3c2F)nn(-c2cnn(C)c2)c1=O [Compound 130] | 0.1 to 0.4
38 | COC[C@H](C)NC(=O)c1cc(-c2ccc3nc(N)ccc3c2)nn(-c2cnn(C)c2)c1=O [Compound 131] | > 0.4
39 | COC[C@H](C)NC(=O)c1cc(-c2ccc3sc(C)nc3c2)nn(-c2cnn(C)c2)c1=O [Compound 132] | > 0.4
40 | COC[C@H](C)NC(=O)c1cc(-c2ccc3cnccc3c2)nn(-c2cnn(C)c2)c1=O [Compound 133] | > 0.4
41 | COC[C@H](C)NC(=O)c1cc(N2C(=O)C(C)(C)c3ccccc32)nn(-c2cnn(C)c2)c1=O [Compound 134] | > 0.4
42 | COC[C@H](C)NC(=O)c1cc(-n2cc(C)c(C)n2)nn(-c2cnn(C)c2)c1=O [Compound 135] | > 0.4

Row | SMILES | IC50 [µM]
43 | COC[C@H](C)NC(=O)c1cc(-n2cc(C(F)(F)F)cn2)nn(-c2cnn(C)c2)c1=O [Compound 136] | > 0.4
44 | COC[C@H](C)NC(=O)c1cc(-n2ccc(C3CC3)n2)nn(-c2cnn(C)c2)c1=O [Compound 137] | > 0.4
45 | COC[C@H](C)NC(=O)c1cc(-n2ccc(C(F)(F)F)n2)nn(-c2cnn(C)c2)c1=O [Compound 138] | > 0.4
46 | COC[C@H](C)NC(=O)c1cc(-c2ccc3c(c2)OCO3)nn(-c2cnn(C)c2)c1=O [Compound 140] | > 0.4
47 | COC[C@H](C)NC(=O)c1cc(-c2ccc3c(c2)N(C)CC3)nn(-c2cnn(C)c2)c1=O [Compound 141] | > 0.4
48 | COC[C@H](C)NC(=O)c1cc(-n2ccc(-c3ccc(Cl)cc3)n2)nn(-c2cnn(C)c2)c1=O [Compound 142] | < 0.1
49 | COC[C@H](C)NC(=O)c1cc(-n2nc(C(F)(F)F)cc2C)nn(-c2cnn(C)c2)c1=O [Compound 143] | > 0.4
50 | COC[C@H](C)NC(=O)c1cc(-c2cc(F)c3ncccc3c2F)nn(-c2cnn(C)c2)c1=O [Compound 144] | > 0.4
51 | COC[C@H](C)NC(=O)c1cc(N2CCC3(CCCCC3)C2)nn(-c2cnn(C)c2)c1=O [Compound 145] | > 0.4
52 | COC[C@H](C)NC(=O)c1cc(C2=CCC(C)CC2)nn(-c2cnn(C)c2)c1=O (stereo partly shown) [Compound 149] | < 0.1
53 | COC[C@H](C)NC(=O)c1cc(-n2ccc3ccccc32)nn(-c2cnn(C)c2)c1=O [Compound 151] | > 0.4
54 | COC[C@H](C)NC(=O)c1cc(C2CCC(C)CC2)nn(-c2cnn(C)c2)c1=O (stereo partly shown) [Compound 152] | > 0.4
55 | COC[C@H](C)NC(=O)c1cc(-c2cc3c(O)ncnc3cc2F)nn(-c2cnn(C)c2)c1=O [Compound 154] | > 0.4
56 | COC[C@H](C)NC(=O)c1cc(-n2nnc3ccccc32)nn(-c2cnn(C)c2)c1=O [Compound 158] | > 0.4
57 | COC[C@H](C)NC(=O)c1cc(-n2nc3ccccc3n2)nn(-c2cnn(C)c2)c1=O [Compound 159] | 0.1 to 0.4
58 | C[C@@H](CO)NC(=O)c1cc(-n2ccc(-c3ccc(Cl)cc3)n2)nn(-c2cnn(C)c2)c1=O [Compound 162] | < 0.1
59 | CN(C)C(=O)C(C)(C)NC(=O)c1cc(-c2ccc(C(F)(F)F)nc2)nn(-c2cnn(C)c2)c1=O [Compound 166] | > 0.4
60 | CNC(=O)C(C)(C)NC(=O)c1cc(-c2ccc(OC(F)(F)F)cc2)nn(-c2cnn(C)c2)c1=O [Compound 174] | 0.1 to 0.4
61 | C[C@H](NC(=O)c1cc(-c2ccc(C(=O)N(C)C)cc2)nn(-c2cccc(F)c2)c1=O)C(=O)N(C)C [Compound 178] | > 0.4
